The text below walks through data of patent US8143268B2, “Bicyclic pyrimidinones and uses thereof” (Avexa Limited, priority 2006, dated 2012).

SMILES strings stand for the structures. Like-named read-outs stand apart in the source and are kept apart here. A value given as a limit tells only on which side of the number the result lay.

In series [1] the target is T1, integrase (Human immunodeficiency virus type 1 group M subtype B, UniProt P04585).
T1 construct: Each reaction (40 ul) contains 30 nM substrate DNA ad 400 ng integrase
Nature of the series: HIV integrase 3′ processing/strand transfer assay (IC50). The format is biochemical. As to the method: A combined 3′-processing/strand transfer assay procedure similar to that published (Ovenden et al. Phytochemistry. 2004 December; 65(24):3255-9.) could be used. The assay could be adapted to a 96 well plate format. Briefly, 400 ng of […] is incubated with 30 nM substrate DNA, consisting of annealed U5 LTR sequence oligonucleotides tagged with Digoxigenin (DIG; 5′-[…]-DIG-3′ (SEQ ID NO: 1)) or biotin (5′-Bio-[…]-3′ (SEQ ID NO: 2)) so that each substrate has either a DIG or Bio tag on opposite strands. Reactions are carried out for 2 hrs at 37° C., products generated as a result of 3′ processing and strand transfer activity are bound to streptavidin plates and detected with using anti-DIG-alkaline phosphatase conjugate and p-nitro phenyl phosphate substrate.
The strand transfer specific assay is of similar format to that of the 3′ processing/strand transfer combined assay except that it uses a biotinylated substrate that represents a pre-processed LTR end (5′-Bio-[…]-3′ (SEQ ID NO: 3)).
Oligonucleotides 5′-biotin-[…]-3′ (SEQ ID NO: 3) and 5′-[…]-Dig-3′ (SEQ ID NO: 1) are annealed in 10 mM Tris-Cl pH8.0, 100 mM NaCl, 2 mM EDTA at a final concentration of 30 uM.
Each reaction (40 ul) contains 30 nM substrate DNA ad 400 ng integrase in a reaction buffer comprising 20 mM Tris-Cl pH7.5, 25 mM NaCl, 5 mM MnCl2, 5 mM MgCl2, 5 mM B-ME, 50 ug/mL BSA, 0.05% (v/v) Tween-20.
Compounds are added in DMSO at 1/10 final reaction volume.
Reactions are incubated at 37° C. for 2 hr followed by the addition of 60 ul adjustment buffer containing 33 mM Tris-Cl pH 7.5, 664 mM NaCl, 16.6 mM EDTA, 0.166 mg/mL sonicated salmon sperm DNA.
The samples are then transferred to Streptavidin coated plates and products of the enzyme reactions are allowed to bind for 1 hr at room temperature.
Plates are then washed with 3×5 min with 30 mM NaOH, 200 mM NaCl, 1 mM EDTA then 3×5 min with wash 2: 10 mM Tris-Cl pH8.0, 6 mM EDTA, 0.1 mg/mL nuclease free BSA.
Anti-digoxigenin-phosphatase Fab (Roche, 0.1 U/mL)), diluted 1/2000 in wash 2 buffer is then added to each well and plates incubated 1 hr at 37° C.
Plates are then washed 3 times with TBS— Tween-20 (0.1%) then twice with TBS and 100 ul substrate (1 mg/mL p-nitrophenylphosphate in 0.1M Tris, pH 9.8) is added and plates incubated until sufficient colour is developed.

Series [2] relates to HIV. In words: Inhibition of HIV replication (p24). The format is cell-based. The note with it: Human immunodeficiency virus 1; concentration inhibiting HIV p24 production to 50% of no drug controls. As to the method: (§1) Cells are seeded into 96 well microtitre plates at 50,000 cells per 50 μl per well in RF-containing […] polybrene (RF-10/2). Compounds are prepared to 4× final concentration in RF-10/2, and 30 L added to cells. Virus (40 L in RF-10/2 containing 1600 pfu) is added to each well or 40 L RF-10/2 for negative controls and for assaying compound cytotoxicity. After 24 hrs, an additional 90 μL of media or media containing 1× compound is added to each well. At 4 days post infection, 100 μL of media is removed from each well and replaced with 100 μl of fresh media with or without compound. Forty eight hours later supernatants are harvested and levels of extracellular p24 determined. Supernatants are diluted 1 in 10,000 and p24 levels assayed using the Vironostika p24 assay kit. EC50 is calculated as the concentration required to inhibit HIV p24 production to 50% that of no drug controls.

A short description of series [3]: Compound cytotoxicity (CC50). Format: cell-based. The conditions noted are these: wells without virus. As to the method:
as §1

Series [4] deals with T2, HIV integrase enzyme (Q148K) (Human immunodeficiency virus type 1 group M subtype B, UniProt P04585, Q1295K). Nature of the series: Strand transfer assay, mutant (Q148K) HIV integrase. Format: biochemical. The note with it: FIG. 1. As to the method: A strand transfer assay procedure similar to that published (Ovenden et al. Phytochemistry. 2004 December; 65(24):3255-9.) is used. Briefly, 400 ng of the enzyme, wild type or drug resistant mutant, is mixed with the compound to be tested and incubated with 30 nM substrate DNA. The substrate DNA is designed to mimic HIV DNA termini that has undergone 3′ end processing, and consists of the annealed U5 LTR sequence oligonucleotides tagged with Digoxigenin (DIG; 5′-[…]-DIG-3′ (SEQ ID NO: 1)) or biotin (5′-Bio-[…]-3′ (SEQ ID NO: 3)) so that each substrate has either a DIG or Bio tag on opposite strands. Reactions are carried out for 1 hr at 37° C. Products generated as a result of strand transfer activity are bound to streptavidin plates and detected using anti-DIG-alkaline phosphatase conjugate and p-nitro phenyl phosphate substrate.
FIG. 1 represents as an example, strand transfer assay results from selected compounds against wild-type integrase and the integrase containing the Q148K mutation.
HIV integrase was mutated within a shuttle vector (pGEM) containing the majority of the HIV-I gag and pol sequence using site directed mutagenesis to generate integrase sequences that have been published as conferring resistance to published integrase inhibitors. These include, but are not limited to, mutations such as Q148K. […]

Series [5] has as its target T2, HIV integrase enzyme (Q148K). The note with it: Q148K mutant enzyme; cited from earlier work.
Setting [6] is: integrase assay, which of Example 28.1/28.2 not stated, read-out: IC50.

Consider `Cc1ccc2nc(-c3nnc(-c4ccccc4)o3)c(O)c(=O)n2c1`, for which the IC50 in series [1] (setting [6]) was more than 1000 nM.

In the case of `Cc1ccc2nc(-c3nnc(Cc4ccc(F)cc4)s3)c(O)c(=O)n2c1`, the IC50 in series [1] (setting [6]) was 1 to 1000 nM. As to `Cc1ccc2nc(-c3ncc(-c4ccc(F)cc4)o3)c(O)c(=O)n2c1`, in series [1] (setting [6]), the IC50 was more than 1000 nM. Still for that read-out and setting: the result for `Cc1ccc2nc(-c3ncc(Cc4ccc(F)cc4)o3)c(O)c(=O)n2c1` reads 1 to 1000 nM; that for `Cc1ccc2nc(-c3noc(Cc4ccc(F)cc4)n3)c(O)c(=O)n2c1`, 1 to 1000 nM. Consider `O=C(NCc1ccc(F)cc1)c1nc2ccc(Br)cn2c(=O)c1O` [7-Br, CONHCH2 (4F-Ph), 7-Bromo-3-hydroxy-4-oxo-4H-pyrido[1,2-a]pyrimidine-2-carboxylic acid 4-fluoro-benzylamide], for which the half-maximal effective concentration (EC50) in series [2] is 1 to 1000 nM. Moreover, the IC50 in series [1] fell in the range of 1000 to 10000 nM. Moreover, in series [3], the CC50 at 6 days was more than 1000 nM. Take `Cc1ccc2nc(C(=O)NCc3ccc(Cl)c(Cl)c3)c(O)c(=O)n2c1` [7-Me, CONHCH2 (3,4-ClPh), 3-Hydroxy-7-methyl-4-oxo-4H-pyrido[1,2-a]pyrimidine-2-carboxylic acid 3,4-dichloro-benzylamide]: the EC50 in series [2] was 1 to 1000 nM. Also, the IC50 in series [1] was in the range of 1 to 1000 nM. The compound also returned a CC50 at 6 days in series [3] of more than 1000 nM. The compound `Cc1ccc2nc(C(=O)NCc3ccc(F)cc3)c(O)c(=O)n2c1` [7-Me, CONHCH2 (4F-Ph), 3-Hydroxy-7-methyl-4-oxo-4H-pyrido[1,2-a]pyrimidine-2-carboxylic acid 4-fluoro-benzylamide] registered an EC50 in series [2] of 1 to 1000 nM. This compound came in with an IC50 in series [1] of 1000 to 10000 nM. The compound also gave a CC50 at 6 days in series [3] of more than 1000 nM. On to `O=C(NCc1ccc(Cl)c(Cl)c1)c1nc2ccc(N3CCOCC3)cn2c(=O)c1O` [Example 6.13, 3-Hydroxy-7-morpholin-4-yl-4-oxo-4H-pyrido[1,2-a]pyrimidine-2-carboxylic acid 3,4-dichloro-benzylamide], for which, in series [4], the “activity against HIV integrase enzyme (Q148K)” value was “particularly high activity”.

With `Cc1nnc(C(=O)NC(C)(C)c2nc(C(=O)NCc3ccc(F)cc3)c(O)c(=O)n2C)o1` [Raltegravir], in series [5], the “resistance of Q148K HIV integrase to published integrase inhibitors” value was “resistant”.

By IC50 is commonly meant the concentration that gives 50% inhibition. A word on the EC50: it is the concentration that produces a half-maximal response. Read a high EC50 as a less potent agent. The term CC50 denotes the concentration at which the toxic effect on the cells reaches its halfway point. Low values mean greater toxicity to the cells, high ones lower toxicity to the cells.
